Experimental data as given in PubChem BioAssay AID270 (DTP/NCI, 2004).
Where “and” joins values, the source holds several entries; their conditions need not be identical. Identical values can stand only once. Inconclusive results are not listed.

Test system: BDF1 mice, s.c. Lewis lung carcinoma, T/C %
Test: NCI In Vivo Anticancer Drug Screen. Data for tumor model Lewis Lung Carcinoma (subcutaneous) in B6D2F1 (BDF1) mice
Protocol: The antitumor activity of compounds was measured in mice bearing transplantable tumors. Survival or tumor size were measured and the results are expressed as the measurement made in the treated group (T) divided by the measurement made in the vehicle treated control group (C). The tumor model used in this assay is Lewis Lung Carcinoma (subcutaneous) in B6D2F1 (BDF1) mice

[1] = endpoint: median survival time, dose: 25.0 mg/kg/injection, schedule: Q01DX009 (ip), vehicle: Klucel (hydroxypropylcellulose) (HPC), higher = longer survival
[2] = endpoint: median survival time, dose: 50.0 mg/kg/injection, schedule: Q01DX009 (ip), vehicle: Klucel (hydroxypropylcellulose) (HPC), higher = longer survival

COc1cc2c(cc1NC(=O)N(CCCl)N=O)-c1ccccc1C2
T/C (endpoint: median survival time, dose: 118.0 mg/kg/injection, schedule: Q01DX001 (ip), vehicle: saline with Tween-80, higher = longer survival): 93 % of control | T/C (endpoint: median survival time, dose: 177.0 mg/kg/injection, schedule: Q01DX001 (ip), vehicle: saline with Tween-80, higher = longer survival): 114 % of control | T/C (endpoint: median survival time, dose: 266.0 mg/kg/injection, schedule: Q01DX001 (ip), vehicle: saline with Tween-80, higher = longer survival): 106 % of control | T/C (endpoint: median survival time, dose: 400.0 mg/kg/injection, schedule: Q01DX001 (ip), vehicle: saline with Tween-80, higher = longer survival): 101 % of control | T/C (endpoint: median survival time, dose: 600.0 mg/kg/injection, schedule: Q01DX001 (ip), vehicle: saline with Tween-80, higher = longer survival): 90 % of control

COc1cc(O)c2c(c1)C(=O)c1cc3c(c(O)c1C2=O)C(O)C(OC)C(C)(O)C3=O (configuration not stated)
T/C (endpoint: median survival time, dose: 12.5 mg/kg/injection, schedule: Q01DX009 (ip), vehicle: water, higher = longer survival): 109 % of control | T/C [1]: 95 % of control | T/C (endpoint: median survival time, dose: 25.0 mg/kg/injection, schedule: Q01DX009 (ip), vehicle: water, higher = longer survival): 89 % of control | T/C [2]: 103 % of control | T/C (endpoint: median survival time, dose: 50.0 mg/kg/injection, schedule: Q01DX009 (ip), vehicle: water, higher = longer survival): 124 % of control | T/C (endpoint: median survival time, dose: 100.0 mg/kg/injection, schedule: Q01DX009 (ip), vehicle: Klucel (hydroxypropylcellulose) (HPC), higher = longer survival): 100 % of control | T/C (endpoint: median survival time, dose: 100.0 mg/kg/injection, schedule: Q01DX009 (ip), vehicle: water, higher = longer survival): 103 % of control | T/C (endpoint: median survival time, dose: 200.0 mg/kg/injection, schedule: Q01DX009 (ip), vehicle: water, higher = longer survival): 90 % of control

Cc1cc2c(c3oc(C4(C)OC4C4OC4C)cc(=O)c13)C(=O)c1c(O)c(C3CC(C)(N(C)C)C(O)C(C)O3)cc(C3CC(N(C)C)C(O)C(C)O3)c1C2=O (configuration not stated)
T/C (endpoint: median survival time, dose: 4.0 micrograms/kg/injection, schedule: Q01DX009 (ip), vehicle: DMSO, higher = longer survival): 105 % of control | T/C (endpoint: median survival time, dose: 8.0 micrograms/kg/injection, schedule: Q01DX009 (ip), vehicle: DMSO, higher = longer survival): 108 % of control | T/C (endpoint: median survival time, dose: 16.0 micrograms/kg/injection, schedule: Q01DX009 (ip), vehicle: DMSO, higher = longer survival): 100 % of control

CCOC(=O)CC(NC(=O)CP(=O)(OCC)OCC)C(=O)OCC (configuration not stated)
T/C (endpoint: median survival time, dose: 50.0 mg/kg/injection, schedule: Q01DX004 (ip), vehicle: saline, higher = longer survival): 113 % of control | T/C (endpoint: median survival time, dose: 100.0 mg/kg/injection, schedule: Q01DX004 (ip), vehicle: saline, higher = longer survival): 116 % of control | T/C (endpoint: median survival time, dose: 200.0 mg/kg/injection, schedule: Q01DX004 (ip), vehicle: saline, higher = longer survival): 124 % of control | T/C (endpoint: median survival time, dose: 400.0 mg/kg/injection, schedule: Q01DX004 (ip), vehicle: saline, higher = longer survival): 116 % of control | T/C (endpoint: median survival time, dose: 800.0 mg/kg/injection, schedule: Q01DX004 (ip), vehicle: saline, higher = longer survival): 116 % of control | T/C (endpoint: median survival time, dose: 1600.0 mg/kg/injection, schedule: Q01DX004 (ip), vehicle: saline, higher = longer survival): 120 % of control

O=C1C2C3C=CC(C3)C2C(=O)N1c1nccs1 (configuration not stated)
T/C (endpoint: mean tumor weight, dose: 50.0 mg/kg/injection, schedule: Q01DX011 (ip), vehicle: carboxymethylcellulose (CMC), higher = larger tumour): 113 % of control | T/C (endpoint: mean tumor weight, dose: 100.0 mg/kg/injection, schedule: Q01DX011 (ip), vehicle: carboxymethylcellulose (CMC), higher = larger tumour): 100 % of control | T/C (endpoint: mean tumor weight, dose: 200.0 mg/kg/injection, schedule: Q01DX011 (ip), vehicle: carboxymethylcellulose (CMC), higher = larger tumour): 45 % of control

COc1ccc(-c2ccc(OC)c(OC)c2OC)c(N)c1
T/C (endpoint: mean tumor weight, dose: 375.0 mg/kg/injection, schedule: Q01DX011 (ip), vehicle: carboxymethylcellulose (CMC), higher = larger tumour): 58 % of control | T/C (endpoint: mean tumor weight, dose: 500.0 mg/kg/injection, schedule: Q01DX011 (ip), vehicle: carboxymethylcellulose (CMC), higher = larger tumour): 89 % of control | T/C (endpoint: mean tumor weight, dose: 625.0 mg/kg/injection, schedule: Q01DX011 (ip), vehicle: carboxymethylcellulose (CMC), higher = larger tumour): 74 % of control | T/C (endpoint: mean tumor weight, dose: 750.0 mg/kg/injection, schedule: Q01DX011 (ip), vehicle: carboxymethylcellulose (CMC), higher = larger tumour): 56 % of control | T/C (endpoint: median survival time, dose: 25.0 mg/kg/injection, schedule: Q01DX009 (ip), vehicle: saline with Tween-80, higher = longer survival): 101 % of control | T/C (endpoint: median survival time, dose: 50.0 mg/kg/injection, schedule: Q01DX009 (ip), vehicle: saline with Tween-80, higher = longer survival): 107 % of control | T/C (endpoint: median survival time, dose: 100.0 mg/kg/injection, schedule: Q01DX009 (ip), vehicle: saline with Tween-80, higher = longer survival): 108 % of control | T/C (endpoint: median survival time, dose: 200.0 mg/kg/injection, schedule: Q01DX009 (ip), vehicle: saline with Tween-80, higher = longer survival): 106 % of control

C=C1C(=O)O[C@@H]2/C=C(/C)[C@@]3(O)C=C[C@](C)(C[C@@H](OC(=O)/C(=C\C)COC(C)=O)[C@@H]12)O3
T/C (endpoint: median survival time, dose: 0.03 mg/kg/injection, schedule: Q01DX009 (ip), vehicle: carboxymethylcellulose (CMC), higher = longer survival): 100 % of control | T/C (endpoint: median survival time, dose: 0.06 mg/kg/injection, schedule: Q01DX009 (ip), vehicle: carboxymethylcellulose (CMC), higher = longer survival): 94 % of control | T/C (endpoint: median survival time, dose: 0.12 mg/kg/injection, schedule: Q01DX009 (ip), vehicle: carboxymethylcellulose (CMC), higher = longer survival): 113 % of control | T/C (endpoint: median survival time, dose: 0.25 mg/kg/injection, schedule: Q01DX009 (ip), vehicle: carboxymethylcellulose (CMC), higher = longer survival): 87 % of control | T/C (endpoint: median survival time, dose: 0.5 mg/kg/injection, schedule: Q01DX009 (ip), vehicle: carboxymethylcellulose (CMC), higher = longer survival): 100 % of control

CCCCC[C@H](O)/C=C/[C@@H]1[C@@H](C/C=C\CCCC(=O)O)[C@@H](O)C[C@H]1O
T/C (endpoint: median survival time, dose: 2.5 mg/kg/injection, schedule: Q04DX003 (ip), vehicle: saline, higher = longer survival): 118 % of control | T/C (endpoint: median survival time, dose: 5.0 mg/kg/injection, schedule: Q04DX003 (ip), vehicle: saline, higher = longer survival): 105 % of control | T/C (endpoint: median survival time, dose: 10.0 mg/kg/injection, schedule: Q04DX003 (ip), vehicle: saline, higher = longer survival): 95 % of control | T/C (endpoint: median survival time, dose: 20.0 mg/kg/injection, schedule: Q04DX003 (ip), vehicle: saline, higher = longer survival): 118 % of control | T/C (endpoint: median survival time, dose: 40.0 mg/kg/injection, schedule: Q04DX003 (ip), vehicle: saline, higher = longer survival): 87 % of control | T/C (endpoint: median survival time, dose: 80.0 mg/kg/injection, schedule: Q04DX003 (ip), vehicle: saline, higher = longer survival): 93 % of control | T/C (endpoint: median survival time, dose: 160.0 mg/kg/injection, schedule: Q04DX003 (ip), vehicle: saline, higher = longer survival): 87 % of control | T/C (endpoint: median survival time, dose: 320.0 mg/kg/injection, schedule: Q04DX003 (ip), vehicle: saline, higher = longer survival): 106 % of control

O=NN(CCCl)C(=O)NC1CSCSC1
T/C (endpoint: median survival time, dose: 1.56 mg/kg/injection, schedule: Q01DX009 (ip), vehicle: saline with Tween-80, higher = longer survival): 106 % of control | T/C (endpoint: median survival time, dose: 3.12 mg/kg/injection, schedule: Q01DX009 (ip), vehicle: saline with Tween-80, higher = longer survival): 104 % of control | T/C (endpoint: median survival time, dose: 4.7 mg/kg/injection, schedule: Q04DX004 (ip), vehicle: saline with Tween-80, higher = longer survival): 95 % of control | T/C (endpoint: median survival time, dose: 5.0 mg/kg/injection, schedule: Q01DX001 (ip), vehicle: saline with Tween-80, higher = longer survival): 116 % of control | T/C (endpoint: median survival time, dose: 6.25 mg/kg/injection, schedule: Q01DX009 (ip), vehicle: saline with Tween-80, higher = longer survival): 96 % of control | T/C (endpoint: median survival time, dose: 7.0 mg/kg/injection, schedule: Q01DX001 (ip), vehicle: saline with Tween-80, higher = longer survival): 117 % of control | T/C (endpoint: median survival time, dose: 11.0 mg/kg/injection, schedule: Q04DX004 (ip), vehicle: saline with Tween-80, higher = longer survival): 112 % of control | T/C (endpoint: median survival time, dose: 12.5 mg/kg/injection, schedule: Q01DX009 (ip), vehicle: saline with Tween-80, higher = longer survival): 109 % of control | T/C (endpoint: median survival time, dose: 16.5 mg/kg/injection, schedule: Q04DX004 (ip), vehicle: saline with Tween-80, higher = longer survival): 71 % of control | T/C (endpoint: median survival time, dose: 23.0 mg/kg/injection, schedule: Q01DX001 (ip), vehicle: saline with Tween-80, higher = longer survival): 163 % of control | T/C (endpoint: median tumor weight (est.), dose: 7.3 mg/kg/injection, schedule: Q01DX001 (ip), vehicle: saline with Tween-80, higher = larger tumour): 97 % of control | T/C (endpoint: median tumor weight (est.), dose: 15.0 mg/kg/injection, schedule: Q01DX001 (ip), vehicle: saline with Tween-80, higher = larger tumour): 32 % of control and 40 % of control | T/C (endpoint: median tumor weight (est.), dose: 22.0 mg/kg/injection, schedule: Q01DX001 (ip), vehicle: saline with Tween-80, higher = larger tumour): 8 % of control

COc1ccc2c(=O)cc(-c3ccccc3)n(C)c2c1
T/C (endpoint: mean tumor weight, dose: 50.0 mg/kg/injection, schedule: Q01DX011 (ip), vehicle: saline, higher = larger tumour): 109 % of control | T/C (endpoint: mean tumor weight, dose: 100.0 mg/kg/injection, schedule: Q01DX011 (ip), vehicle: saline, higher = larger tumour): 83 % of control | T/C (endpoint: mean tumor weight, dose: 200.0 mg/kg/injection, schedule: Q01DX011 (ip), vehicle: saline, higher = larger tumour): 79 % of control

O=NN(CCCl)C(=O)Nc1cccc(O)c1
T/C [1]: 116 % of control

CSc1ccc(NC(=O)N(CCCl)N=O)cc1
T/C (endpoint: median survival time, dose: 6.25 mg/kg/injection, schedule: Q01DX009 (ip), vehicle: Klucel (hydroxypropylcellulose) (HPC), higher = longer survival): 115 % of control | T/C (endpoint: median survival time, dose: 12.5 mg/kg/injection, schedule: Q01DX009 (ip), vehicle: Klucel (hydroxypropylcellulose) (HPC), higher = longer survival): 90 % of control | T/C [1]: 106 % of control | T/C [2]: 103 % of control
